In US20240316055A1, “METHODS FOR TREATING LEIGH SYNDROME” (DBCC Research, LLC, priority 2023, published 2024):

Columns and labels:
Assay type in all cases: cell-based
[1] = test system: ECHS1 Fibroblast cells; assay: Propionate potency screen (cell viability, DAPI nuclei count); settings: for concentration-dependent curves: propionate potency screen, FIG. 4; for Propionate assay hits: 10 mM propionate medium, 96 hours, 3-fold serial dilution starting at 10 uM, Z-score >2
Protocol: The suspension was centrifuged at 200x g for 5 min. The suspension was discarded and the pellet was resuspended in the 10 mM propionate medium (DMEM+10% FBS+10 mM sodium propionate) and seeded at 750 cells/well (50 μL) into the compound wells (1 μM and 10 μM). For the positive control experiment, the cells were suspended in 10 mM propionate medium +5.5 mM glucose +0.01% DMSO and seeded at 750 cells/well (50 μL) into the blank wells. For the negative control experiment, the cells were suspended in the 10 mM propionate medium +0.01% DMSO and seeded at 750 cells/well (50 μL) into the blank wells. […] The plates were then washed 3x with 50 uL/well of PBS. The cells were stained with 25 μL/well of a solution DAPI and left at room temperature for 1 hr. The plates were then washed 3x with 50 uL/well of PBS prior to imaging. Agilent BioTek EL406 Microplate Washer Dispenser was used for the cell fixation and staining protocol. The plates were imaged using GE InCell2200 Cell Analyzer using PerkinElmer Columbus software quantification protocol. The data was analyzed using Genedata, Vortex, and Abase software. A Z-score value of >2 was used for both the Prestwick/Selleck and SPECS library (based on the negative control population) to determine hit selection.
ECHS1 Fibroblast cells were harvested at 70-80% confluent with trypsin and suspended in DMEM+10% FBS. The suspension was centrifuged at 200x g for 5 min. The suspension was discarded and the pellet was resuspended in the either the 5.5 mM galactose medium (DMEM+10% FBS+5.5 mM of galactose) or the 10 mM propionate medium (DMEM+10% FBS+10 mM sodium propionate). […] For the positive control experiment, the cells were suspended in either the 5.5 mM galactose medium or 10 mM propionate medium+5.5 mM glucose+0.01% DMSO and seeded at 750 cells/well (50 μL) into the blank wells. For the negative control experiment, the cells were suspended in the 5.5 mM galactose or 10 mM propionate medium +0.01% DMSO and seeded at 750 cells/well (50 μL) into the blank wells. […] The plates were then washed 3x with 50 μL/well of PBS. The cells were stained with 25 μL/well of a solution of DAPI and left at room temperature for 1 hr. The plates were then washed 3x with 50 μL/well of PBS prior to imaging. Agilent BioTek EL406 Microplate Washer Dispenser was used for the cell fixation and staining protocol. The plates were imaged using GE InCell2200 Cell Analyzer using PerkinElmer Columbus software quantification protocol. The data was analyzed using Genedata, Vortex, and Abase software. A Z-score value of >2 was used for both the Prestwick/Selleck and SPECS library (based on the negative control population) to determine hit selection.

[2] = test system: ECHS1 Fibroblast cells; assay: Galactose potency screen (cell viability, DAPI nuclei count); settings: for Galactose assay hits: 5.5 mM galactose medium, 96 hours, 3-fold serial dilution starting at 10 uM, Z-score >2
Protocol: Galactose Screen: Compound library plates were obtained from Prestwick/Selleck and SPECS (7,591 compounds total, 27 compounds/plate/concentration at 1 μM and 10 μM, 384-well plates). ECHS1 Fibroblast cells were harvested at 95% confluent with trypsin and suspended in Dulbecco's Modified Eagle Medium (DMEM)+10% Fetal Bovine Serum (FBS). The suspension was centrifuged at 200x g for 5 min. The suspension was discarded and the pellet was resuspended in the 5.5 mM galactose medium (DMEM+10% FBS+5.5 mM galactose) and seeded at 750 cells/well (50 μL) into the compound wells (1 μM and 10 μM). For the positive control experiment, the cells were suspended in 5.5 mM galactose medium+5.5 mM glucose+0.01% DMSO and seeded at 750 cells/well (50 μL) into the blank wells. For the negative control experiment, the cells were suspended in the 5.5 mM galactose medium+0.01% DMSO and seeded at 750 cells/well (50 μL) into the blank wells. The seeded plates were incubated at 37° C. for 96 hours, then 15 μL/well of 16% paraformaldehyde solution was added to the plates and allowed to sit for 15 min to fix the cells. The plates were then washed 3x with 50 μL/well of phosphate-buffered saline (PBS). The cells were stained with […] of a solution of 4,6-diamidino-2-phenylindole dilactate (DAPI, Invitrogen) and left at room temperature for 1 hr. The plates were then washed 3x with 50 μL/well of PBS prior to imaging. Agilent BioTek EL406 Microplate Washer Dispenser was used for the cell fixation and staining protocol. The plates were imaged using GE InCell2200 Cell Analyzer using PerkinElmer Columbus software quantification protocol. The data was analyzed using Genedata, Vortex, and Abase software. A Z-score value of >2 was used for the Prestwick/Selleck compound library and >3 for the SPECS library (based on the negative control population) to determine hit selection.
ECHS1 Fibroblast cells were harvested at 70-80% confluent with trypsin and suspended in DMEM+10% FBS. The suspension was centrifuged at 200x g for 5 min. The suspension was discarded and the pellet was resuspended in the either the 5.5 mM galactose medium (DMEM+10% FBS+5.5 mM of galactose) or the 10 mM propionate medium (DMEM+10% FBS+10 mM sodium propionate). The cells were seeded at 750 cells/well (50 μL) into a 384-well plate containing the test compounds (3-fold serial dilution across 10 plates, starting at 10 uM). For the positive control experiment, the cells were suspended in either the 5.5 mM galactose medium or 10 mM propionate medium+5.5 mM glucose+0.01% DMSO and seeded at 750 cells/well (50 μL) into the blank wells. For the negative control experiment, the cells were suspended in the 5.5 mM galactose or 10 mM propionate medium +0.01% DMSO and seeded at 750 cells/well (50 μL) into the blank wells. The seeded plates were incubated at 37° C. for 96 hours, then 15 μL/well of 16% paraformaldehyde solution was added to the plates and allowed to sit for 15 min to fix the cells. The plates were then washed 3x with 50 μL/well of PBS. The cells were stained with 25 μL/well of a solution of DAPI and left at room temperature for 1 hr. The plates were then washed 3x with 50 μL/well of PBS prior to imaging. Agilent BioTek EL406 Microplate Washer Dispenser was used for the cell fixation and staining protocol. The plates were imaged using GE InCell2200 Cell Analyzer using PerkinElmer Columbus software quantification protocol. The data was analyzed using Genedata, Vortex, and Abase software. A Z-score value of >2 was used for both the Prestwick/Selleck and SPECS library (based on the negative control population) to determine hit selection.

[3] = test system: ECHS1 patient-derived fibroblasts; assay: Mitochondrial respiration assay (Seahorse); settings: 48 hours; for respiration: glucose or galactose conditions, 1, 5 or 10 μM
From the text: To assess the mechanism of action of hit compounds from the screens of previous Examples, which were based on rescue of viability after metabolic challenge, Seahorse assay was used to measure mitochondrial function in response to treatment at multiple concentrations. The Seahorse assay measures the following parameters: oxygen consumption; basal respiration rate; ATP-linked respiration; maximal respiration; reserve capacity; and ATP production rate. At baseline (no treatment), the ECHS1 patient-derived fibroblasts had lower respiration rates than the control fibroblasts in glucose culturing conditions (20% reduction) and in galactose culturing conditions (30% reduction).
ECHS1 patient-derived fibroblasts and age-matched and sex-matched control fibroblasts were initially grown in standard media (DMEM+2 mM glutamine+1 mM pyruvate) containing 10 mM glucose as the energy source. Cells were seeded into specialized 96-well plates at a density of 10,000 cells per well. One day after plating, cells were treated with the test compounds at the concentrations of 0, 1, 5, or 10 μM. Half of the samples were cultured in 10 mM glucose media in addition to the test compounds. The remaining half of the sample were cultured in 10 mM galactose media, which is a metabolic challenge, in addition to the test compound. Test compounds were incubated with cells for 48 hours. According to the standard Seahorse protocol, the following stressors were added to cells in sequential order: 2 μM oligomycin; 5 μM carbonyl cyanide-4-(trifluoromethoxy)phenylhydrazone (FCCP); 9 μM FCCP; 2 μM rotenone and 2 μM antimycin A. Data were normalized to cell number per well using a Hoechst stain for cell nuclei. Two rounds of experiments were conducted. The results were consistent between the two rounds.

CCCCOc1c(C(=O)c2c(F)cc(C)cc2F)cnc2n[nH]cc12 [BMS-265246, (4-butoxy-2H-pyrazolo[3,4-b]pyridin-5-yl)-(2,6-difluoro-4-methylphenyl)methanone]
concentration-dependent curves [1]: non-linear response

COc1ccc(-n2c(C)c([N+](=O)[O-])c3ccc(O)cc32)cc1 [ID-8, 1-(4-methoxyphenyl)-2-methyl-3-nitroindol-6-ol]
concentration-dependent curves [1]: non-linear response

Cc1cccc(-c2n[nH]cc2-c2ccc3ncccc3n2)n1 [RepSox, 2-[5-(6-methylpyridin-2-yl)-1H-pyrazol-4-yl]-1,5-naphthyridine]
Galactose assay hits [2]: hits | Propionate assay hits [1]: hits | respiration [3]: did not result in major changes

COc1nccc(-c2c(-c3ccc(F)cc3)ncn2[C@H]2CC[C@H](O)CC2)n1 [SB-239063, 4-[4-(4-fluorophenyl)-5-(2-methoxypyrimidin-4-yl)imidazol-1-yl]cyclohexan-1-ol]
nuclei count ([2]; galactose assay, FIG. 1): concentration-dependent increase | concentration-dependent curves ([2]; galactose potency screen, FIG. 2): non-linear response

CNC(C)C(=O)NC1CCCCC2CCC(C(=O)NC(c3ccccc3)c3cn(CCCCc4ccc(CCCCn5cc(C(NC(=O)C6CCC7CCCCC(NC(=O)C(C)NC)C(=O)N76)c6ccccc6)nn5)cc4)nn3)N2C1=O [SM-164, (3S,6S, 10aS)-N-[(S)-[1-[4-[4-[4-[4-[(S)-[[(3S,6S,10aS)-6-[[(2S)-2-(methylamino)propanoyl]amino]-5-oxo-2,3,6,7,8,9,10,10a-octahydro-1H-pyrrolo[1,2-a]azocine-3-carbonyl]amino]-phenylmethyl]triazol-1-yl]butyl]phenyl]butyl]triazol-4-yl]-phenylmethyl]-6-[(2S)-2-(methylamino)propanoyl]amino]-5-oxo-2,3,6,7,8,9,10,10a-octahydro-1H-pyrrolo[1,2-a]azocine-3-carboxamide]
concentration-dependent curves [1]: non-linear response

Fc1ccc(-c2nc(-c3c(F)cccc3F)[nH]c2-c2ccncc2)cc1 [TA-01, 4-[2-(2,6-difluorophenyl)-4-(4-fluorophenyl)-1H-imidazol-5-yl]pyridine]
Galactose assay hits [2]: hits | Propionate assay hits [1]: hits

CCC(=O)Nc1cccc(Oc2nc(Nc3ccc(N4CCN(C)CC4)cc3OC)ncc2Cl)c1 [WZ4003, N-[3-[5-chloro-2-[2-methoxy-4-(4-methylpiperazin-1-yl)anilino]pyrimidin-4-yl]oxyphenyl]propanamide]
nuclei count ([1]; propionate assay, FIG. 3): concentration-dependent increase | concentration-dependent curves [1]: non-linear response

CCOC(=O)C1=C(C)NC(C)=C(C(=O)OC)C1c1cccc(Cl)c1Cl (stereo not shown) [felodipine, 5-O-ethyl 3-O-methyl 4-(2,3-dichlorophenyl)-2,6-dimethyl-1,4-dihydropyridine-3,5-dicarboxylate]
ATP production from glycolysis [3]: increased | basal and maximal respiration [3]: decreased | respiration [3]: did not result in major changes

Cc1ccc(-n2nc(C(C)(C)C)cc2NC(=O)NCc2cc(F)ccc2Oc2ccc3c(cnn3CCO)c2)cc1 [pexmetinib]
Galactose assay hits [2]: hits | Propionate assay hits [1]: hits | concentration-dependent curves [1]: non-linear response | increase in cell number per well ([3]; 1 μM, both galactose and glucose cultured plates): 14% | total ATP production ([3]; most pronounced in the 1-5 μM range): some recovery | maximal respiration ([3]; galactose-treated cells): less pronounced | maximal respiration ([3]; glucose-treated cells): increased to similar levels to the control cells
